Like-named read-outs stand apart in the source and are kept apart here.
Key:
Type in all cases: biochemical
Lyn = target: T1, Lyn (Homo sapiens, UniProt P07948); assay: Kinase inhibition assay (33P transfer), Lyn; details: Table 6, Lyn-1 kinase inhibition class
T1 construct: Kinases are expressed as either kinase domains or full length constructs; made in house
Excerpt: (§1) The inhibitor compounds described herein are screened in the following manner. Kinases suitable for use in the following protocol to determine kinase activity of the compounds described herein include, -but are not limited to: Lck, Lyn, Src, Fyn, Syk, Zap-70, Itk, Tec, Btk, EGFR, ErbB2, Kdr, Flt-1, Flt-3, Tek, c-Met, InsR, and AKT.
(§2) Kinases are expressed as either kinase domains or full length constructs fused to glutathione S-transferase (GST) or polyHistidine tagged fusion proteins in either E. colior Baculovirus-High Five expression systems. They are purified to near homogeneity by affinity chromatography essentially as previously described (Lehr et al., 1996; Gish et al., 1995). In some instances, kinases are co-expressed or mixed with purified or partially purified regulatory polypeptides prior to measurement of activity.
(§3) Kinase activity and inhibition are measured essentially by established protocols (Braunwalder et al., 1996). Briefly, The transfer of ^33PO4 from ATP to the synthetic substrates poly(Glu, Tyr) 4:1 or poly(Arg, Ser) 3:1 attached to the bioactive surface of microtiter plates serves as the basis to evaluate enzyme activity. After an incubation period, the amount of phosphate transferred is measured by first washing the plate with 0.5% phosphoric acid, adding liquid scintillant, and then counting in a liquid scintillation detector. The IC50 is determined by the concentration of compound that causes a 50% reduction in the amount of […] incorporated onto the substrate bound to the plate.

Fyn = target: T2, Fyn (Homo sapiens, UniProt P06241); assay: Kinase inhibition assay (33P transfer), Fyn; details: read-out: Fyn-1
T2 construct: Kinases are expressed as either kinase domains or full length constructs; made in house
Excerpt: as §1, §2, §3

PDGFRB = target: T3, PDGFRB (Homo sapiens, UniProt P09619); assay: Kinase inhibition assay (33P transfer), PDGFRB; details: read-out: PDGFRB-1
T3 construct: Kinases are expressed as either kinase domains or full length constructs; made in house

Kdr = target: T4, Kdr (Homo sapiens, UniProt P35968); assay: Kinase inhibition assay (33P transfer), Kdr; details: Table 3; read-out: KDR-1
T4 construct: Kinases are expressed as either kinase domains or full length constructs; made in house
Procedure, shortened: (§4)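 Recombinant kinase-domain or full-length fusion proteins (GST or His tag) served as enzyme. Substrate poly(Glu,Tyr) 4:1 or poly(Arg,Ser) 3:1 was bound to the plate; transferred 33P was read by liquid scintillation following acid washing.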

AKT = target: T5, AKT (Homo sapiens, UniProt Q9Y243); assay: Kinase inhibition assay (33P transfer), AKT; details: Table 2, kinase inhibition class; read-out: AKT3-1
T5 construct: Kinases are expressed as either kinase domains or full length constructs; made in house
Procedure, shortened: as §4

Hck-1 = target: T6, Hck-1 (Homo sapiens, UniProt P08631); assay: Kinase inhibition assay (33P transfer), Hck; details: Table 6, Hck-1 kinase inhibition class
T6 construct: Kinases are expressed as either kinase domains or full length constructs; made in house

EGFR = target: T7, EGFR (Homo sapiens, UniProt P00533); assay: Kinase inhibition assay (33P transfer), EGFR; details: Table 2, kinase inhibition class; read-out: EGFR-1
T7 construct: Kinases are expressed as either kinase domains or full length constructs; made in house
Procedure, shortened: (§5)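 Using immobilised substrate copolymers (poly(Glu,Tyr) 4:1; poly(Arg,Ser) 3:1) and [33P]ATP, purified fusion kinases were allowed to react; plates were then rinsed in 0.5% phosphoric acid and counted in a scintillation detector. Half-maximal inhibition of label transfer defines IC50.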

ErbB4 = target: T8, ErbB4 (Homo sapiens, UniProt Q15303); assay: Kinase inhibition assay (33P transfer), ErbB4; details: read-out: ErbB4-1
T8 construct: Kinases are expressed as either kinase domains or full length constructs; made in house

Tek = target: T9, Tek (Homo sapiens, UniProt Q02763); assay: Kinase inhibition assay (33P transfer), Tek; details: read-out: Tek-1
T9 construct: Kinases are expressed as either kinase domains or full length constructs; made in house
Procedure, shortened: as §5

Lck = target: T10, Lck (Homo sapiens, UniProt P06239); assay: Kinase inhibition assay (33P transfer), Lck; details: Table 3; read-out: Lck-1
T10 construct: Kinases are expressed as either kinase domains or full length constructs; made in house
Procedure, shortened: as §4

Flt-1 = target: T11, Flt-1 (Homo sapiens, UniProt P17948); assay: Kinase inhibition assay (33P transfer), Flt-1
T11 construct: Kinases are expressed as either kinase domains or full length constructs; made in house
Excerpt: as §1, §2, §3

FGFR1 = target: T12, FGFR1 (Homo sapiens, UniProt P11362); assay: Kinase inhibition assay (33P transfer), FGFR1; details: read-out: FGFR1-1
T12 construct: Kinases are expressed as either kinase domains or full length constructs; made in house

Itk = target: T13, Itk (Homo sapiens, UniProt Q08881); assay: Kinase inhibition assay (33P transfer), Itk; details: read-out: Itk-1
T13 construct: Kinases are expressed as either kinase domains or full length constructs; made in house
T13 sequence (Q08881 1-620): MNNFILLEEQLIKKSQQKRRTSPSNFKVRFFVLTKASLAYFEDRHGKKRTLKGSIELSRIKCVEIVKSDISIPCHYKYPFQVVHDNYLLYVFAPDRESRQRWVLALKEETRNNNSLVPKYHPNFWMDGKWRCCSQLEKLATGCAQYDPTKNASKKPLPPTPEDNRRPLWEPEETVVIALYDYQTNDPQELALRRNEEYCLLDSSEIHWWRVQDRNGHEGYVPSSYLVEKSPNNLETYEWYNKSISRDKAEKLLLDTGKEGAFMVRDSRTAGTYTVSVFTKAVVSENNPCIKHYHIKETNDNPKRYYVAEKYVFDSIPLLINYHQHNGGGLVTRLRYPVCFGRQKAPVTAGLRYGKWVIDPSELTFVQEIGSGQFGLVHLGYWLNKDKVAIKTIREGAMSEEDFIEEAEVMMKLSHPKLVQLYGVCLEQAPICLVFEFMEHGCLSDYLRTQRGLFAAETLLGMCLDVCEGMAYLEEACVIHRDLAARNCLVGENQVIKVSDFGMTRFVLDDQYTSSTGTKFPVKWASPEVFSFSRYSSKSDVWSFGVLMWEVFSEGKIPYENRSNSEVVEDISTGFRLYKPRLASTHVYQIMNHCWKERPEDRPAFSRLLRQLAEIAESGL
Procedure, shortened: as §5

c-Met = target: T14, c-Met (Homo sapiens, UniProt P08581); assay: Kinase inhibition assay (33P transfer), c-Met; details: Table 2, kinase inhibition class; read-out: Met-1
T14 construct: Kinases are expressed as either kinase domains or full length constructs; made in house
Procedure, shortened: as §5

Zap-70 = target: T15, Zap-70 (Homo sapiens, UniProt P43403); assay: Kinase inhibition assay (33P transfer), Zap-70; details: read-out: Zap-1
T15 construct: Kinases are expressed as either kinase domains or full length constructs; made in house
T15 sequence (P43403 1-619): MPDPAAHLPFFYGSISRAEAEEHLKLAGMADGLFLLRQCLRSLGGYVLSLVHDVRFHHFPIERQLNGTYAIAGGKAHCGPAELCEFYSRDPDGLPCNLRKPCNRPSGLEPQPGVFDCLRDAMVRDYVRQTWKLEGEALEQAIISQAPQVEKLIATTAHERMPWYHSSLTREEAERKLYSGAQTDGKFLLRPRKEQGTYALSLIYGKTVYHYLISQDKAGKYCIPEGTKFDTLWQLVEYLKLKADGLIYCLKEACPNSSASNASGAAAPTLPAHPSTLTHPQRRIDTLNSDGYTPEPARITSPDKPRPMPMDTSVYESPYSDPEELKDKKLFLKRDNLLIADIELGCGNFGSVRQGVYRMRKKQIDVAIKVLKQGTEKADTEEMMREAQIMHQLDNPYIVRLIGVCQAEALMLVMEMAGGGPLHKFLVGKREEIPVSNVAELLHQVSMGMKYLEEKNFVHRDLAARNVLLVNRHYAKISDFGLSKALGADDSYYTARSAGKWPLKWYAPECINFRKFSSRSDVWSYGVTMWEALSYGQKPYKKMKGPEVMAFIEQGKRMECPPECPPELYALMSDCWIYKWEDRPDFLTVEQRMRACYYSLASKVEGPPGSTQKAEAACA
Procedure, shortened: as §4

Src = target: T16, Src (Homo sapiens, UniProt P12931); assay: Kinase inhibition assay (33P transfer), Src; details: Table 6, Src-1 kinase inhibition class
T16 construct: Kinases are expressed as either kinase domains or full length constructs; made in house
Excerpt: as §1, §2, §3

ErbB2 = target: T17, ErbB2 (Homo sapiens, UniProt P04626); assay: Kinase inhibition assay (33P transfer), ErbB2; details: read-out: ErbB2-2
T17 construct: Kinases are expressed as either kinase domains or full length constructs; made in house
Procedure, shortened: as §5

IGFR-1 = target: T18, IGFR-1 (Homo sapiens, UniProt P08069); assay: Kinase inhibition assay, IGFR-1 (Table 2); details: Table 2, kinase inhibition class
T18 construct: Kinases are expressed as either kinase domains or full length constructs; made in house

T3 sequence (P09619 33-1106, species assumed): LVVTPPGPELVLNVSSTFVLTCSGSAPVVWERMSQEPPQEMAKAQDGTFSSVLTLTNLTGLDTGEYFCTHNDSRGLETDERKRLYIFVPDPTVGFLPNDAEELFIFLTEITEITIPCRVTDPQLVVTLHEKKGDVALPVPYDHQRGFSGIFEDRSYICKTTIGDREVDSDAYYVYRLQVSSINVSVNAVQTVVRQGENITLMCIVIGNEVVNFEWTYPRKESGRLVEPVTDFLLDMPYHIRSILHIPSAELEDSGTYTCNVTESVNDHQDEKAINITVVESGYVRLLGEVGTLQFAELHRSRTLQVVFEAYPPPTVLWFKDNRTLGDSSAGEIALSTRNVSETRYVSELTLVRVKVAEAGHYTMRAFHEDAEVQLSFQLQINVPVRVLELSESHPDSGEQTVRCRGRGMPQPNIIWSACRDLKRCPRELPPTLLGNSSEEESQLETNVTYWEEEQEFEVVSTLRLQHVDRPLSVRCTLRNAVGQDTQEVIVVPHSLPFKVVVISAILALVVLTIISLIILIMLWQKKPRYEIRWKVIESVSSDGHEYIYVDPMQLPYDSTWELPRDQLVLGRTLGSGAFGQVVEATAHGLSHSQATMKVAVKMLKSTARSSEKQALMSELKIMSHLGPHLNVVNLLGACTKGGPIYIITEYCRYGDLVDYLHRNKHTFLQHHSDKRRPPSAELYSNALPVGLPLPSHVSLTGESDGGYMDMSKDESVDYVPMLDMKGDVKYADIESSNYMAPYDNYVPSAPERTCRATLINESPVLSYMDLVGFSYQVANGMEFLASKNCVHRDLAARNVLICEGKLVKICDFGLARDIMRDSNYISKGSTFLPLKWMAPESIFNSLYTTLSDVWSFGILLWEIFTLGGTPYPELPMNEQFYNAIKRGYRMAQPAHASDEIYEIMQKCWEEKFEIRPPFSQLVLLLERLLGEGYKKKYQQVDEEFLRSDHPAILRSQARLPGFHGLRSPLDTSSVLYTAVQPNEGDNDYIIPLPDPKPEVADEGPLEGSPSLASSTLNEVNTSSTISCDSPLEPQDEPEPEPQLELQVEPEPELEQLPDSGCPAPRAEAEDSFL
T14 sequence (P08581 25-1390): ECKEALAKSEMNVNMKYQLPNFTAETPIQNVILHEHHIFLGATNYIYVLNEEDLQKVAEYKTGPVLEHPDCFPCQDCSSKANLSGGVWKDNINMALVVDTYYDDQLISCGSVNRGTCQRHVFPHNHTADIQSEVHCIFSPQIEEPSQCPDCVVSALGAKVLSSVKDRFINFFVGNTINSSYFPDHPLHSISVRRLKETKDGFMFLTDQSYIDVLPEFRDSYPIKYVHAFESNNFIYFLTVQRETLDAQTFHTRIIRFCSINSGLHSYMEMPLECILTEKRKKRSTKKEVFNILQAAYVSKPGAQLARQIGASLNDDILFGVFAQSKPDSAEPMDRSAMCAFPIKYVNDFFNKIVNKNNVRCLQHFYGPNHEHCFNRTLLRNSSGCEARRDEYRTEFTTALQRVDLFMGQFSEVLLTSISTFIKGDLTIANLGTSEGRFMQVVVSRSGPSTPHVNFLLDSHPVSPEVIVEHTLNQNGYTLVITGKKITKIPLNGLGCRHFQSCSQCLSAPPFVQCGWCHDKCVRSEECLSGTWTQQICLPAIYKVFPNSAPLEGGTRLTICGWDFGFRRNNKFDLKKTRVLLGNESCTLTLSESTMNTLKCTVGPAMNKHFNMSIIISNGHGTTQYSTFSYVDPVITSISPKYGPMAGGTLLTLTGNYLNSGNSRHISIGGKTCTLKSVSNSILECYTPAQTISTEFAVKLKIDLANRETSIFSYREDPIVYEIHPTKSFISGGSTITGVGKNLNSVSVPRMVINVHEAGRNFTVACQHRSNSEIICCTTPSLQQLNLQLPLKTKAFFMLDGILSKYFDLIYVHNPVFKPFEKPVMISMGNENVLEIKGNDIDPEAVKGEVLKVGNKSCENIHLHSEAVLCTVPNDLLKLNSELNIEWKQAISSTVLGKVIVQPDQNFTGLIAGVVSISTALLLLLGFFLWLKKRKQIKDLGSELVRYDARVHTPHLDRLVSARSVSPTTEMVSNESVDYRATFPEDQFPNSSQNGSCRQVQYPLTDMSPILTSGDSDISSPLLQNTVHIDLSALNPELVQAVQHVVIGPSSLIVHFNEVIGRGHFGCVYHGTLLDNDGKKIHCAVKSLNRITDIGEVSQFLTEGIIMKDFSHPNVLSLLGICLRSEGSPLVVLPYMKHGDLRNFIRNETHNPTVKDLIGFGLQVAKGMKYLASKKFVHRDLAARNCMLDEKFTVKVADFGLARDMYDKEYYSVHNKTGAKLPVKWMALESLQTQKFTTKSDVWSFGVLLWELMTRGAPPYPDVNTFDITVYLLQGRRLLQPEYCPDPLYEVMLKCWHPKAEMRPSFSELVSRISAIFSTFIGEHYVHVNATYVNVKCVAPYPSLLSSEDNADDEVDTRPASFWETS
T9 sequence (Q02763 23-1124, species assumed): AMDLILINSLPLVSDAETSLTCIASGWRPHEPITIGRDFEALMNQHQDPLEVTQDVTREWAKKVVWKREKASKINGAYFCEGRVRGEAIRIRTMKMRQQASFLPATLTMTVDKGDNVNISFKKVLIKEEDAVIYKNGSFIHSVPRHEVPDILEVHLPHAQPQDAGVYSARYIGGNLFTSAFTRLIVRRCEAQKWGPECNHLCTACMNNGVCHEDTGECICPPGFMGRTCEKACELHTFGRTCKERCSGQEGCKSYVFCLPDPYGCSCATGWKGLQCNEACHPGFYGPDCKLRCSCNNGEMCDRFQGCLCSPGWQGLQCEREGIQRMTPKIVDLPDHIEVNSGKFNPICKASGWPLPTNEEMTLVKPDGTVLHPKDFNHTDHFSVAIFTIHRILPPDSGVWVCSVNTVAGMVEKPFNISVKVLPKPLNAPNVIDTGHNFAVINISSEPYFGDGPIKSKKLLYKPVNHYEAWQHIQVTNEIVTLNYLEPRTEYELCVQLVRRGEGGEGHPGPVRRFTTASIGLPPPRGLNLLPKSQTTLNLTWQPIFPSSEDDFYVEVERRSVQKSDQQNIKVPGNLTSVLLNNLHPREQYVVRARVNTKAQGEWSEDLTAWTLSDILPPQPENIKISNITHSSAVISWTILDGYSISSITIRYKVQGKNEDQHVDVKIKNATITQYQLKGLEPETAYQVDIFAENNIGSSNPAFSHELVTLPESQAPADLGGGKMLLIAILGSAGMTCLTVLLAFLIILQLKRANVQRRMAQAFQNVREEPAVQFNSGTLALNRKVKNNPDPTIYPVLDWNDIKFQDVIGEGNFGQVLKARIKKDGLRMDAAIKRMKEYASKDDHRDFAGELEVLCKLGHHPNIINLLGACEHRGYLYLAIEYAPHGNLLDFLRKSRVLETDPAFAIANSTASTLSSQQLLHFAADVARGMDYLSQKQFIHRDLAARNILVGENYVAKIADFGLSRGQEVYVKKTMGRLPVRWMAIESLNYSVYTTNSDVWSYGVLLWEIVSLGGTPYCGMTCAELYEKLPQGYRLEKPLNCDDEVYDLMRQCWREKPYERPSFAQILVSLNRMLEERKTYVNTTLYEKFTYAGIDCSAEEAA
T10 sequence (P06239 whole entry, species assumed, the tested form may be a part): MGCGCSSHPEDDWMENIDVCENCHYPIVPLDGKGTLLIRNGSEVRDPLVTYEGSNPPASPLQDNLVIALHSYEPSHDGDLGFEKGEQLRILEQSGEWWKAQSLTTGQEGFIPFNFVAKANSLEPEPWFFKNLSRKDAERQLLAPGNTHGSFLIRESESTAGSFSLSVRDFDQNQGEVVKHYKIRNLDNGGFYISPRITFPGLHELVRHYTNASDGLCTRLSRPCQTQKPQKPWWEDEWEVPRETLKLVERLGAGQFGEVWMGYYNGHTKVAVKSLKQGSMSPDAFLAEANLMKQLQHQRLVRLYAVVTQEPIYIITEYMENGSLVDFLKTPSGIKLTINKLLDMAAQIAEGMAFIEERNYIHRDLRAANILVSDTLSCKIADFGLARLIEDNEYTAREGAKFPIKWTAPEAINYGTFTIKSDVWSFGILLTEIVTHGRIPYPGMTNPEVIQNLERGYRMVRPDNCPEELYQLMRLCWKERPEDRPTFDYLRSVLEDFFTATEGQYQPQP
T6 sequence (P08631 whole entry, the tested form may be a part): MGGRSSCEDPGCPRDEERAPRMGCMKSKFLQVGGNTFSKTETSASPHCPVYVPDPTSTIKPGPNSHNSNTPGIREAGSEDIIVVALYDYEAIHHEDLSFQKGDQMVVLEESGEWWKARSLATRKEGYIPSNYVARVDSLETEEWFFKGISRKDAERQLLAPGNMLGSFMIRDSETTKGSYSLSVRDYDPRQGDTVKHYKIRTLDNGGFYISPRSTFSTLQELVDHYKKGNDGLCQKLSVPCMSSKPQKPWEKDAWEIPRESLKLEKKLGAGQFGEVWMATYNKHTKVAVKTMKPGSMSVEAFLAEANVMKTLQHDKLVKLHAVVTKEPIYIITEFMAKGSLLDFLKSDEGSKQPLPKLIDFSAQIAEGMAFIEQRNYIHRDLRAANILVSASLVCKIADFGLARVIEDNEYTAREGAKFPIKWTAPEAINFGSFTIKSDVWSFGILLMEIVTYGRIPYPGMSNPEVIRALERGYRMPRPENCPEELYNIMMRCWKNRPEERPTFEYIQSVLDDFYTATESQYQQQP
T1 sequence (P07948 whole entry, species assumed, the tested form may be a part): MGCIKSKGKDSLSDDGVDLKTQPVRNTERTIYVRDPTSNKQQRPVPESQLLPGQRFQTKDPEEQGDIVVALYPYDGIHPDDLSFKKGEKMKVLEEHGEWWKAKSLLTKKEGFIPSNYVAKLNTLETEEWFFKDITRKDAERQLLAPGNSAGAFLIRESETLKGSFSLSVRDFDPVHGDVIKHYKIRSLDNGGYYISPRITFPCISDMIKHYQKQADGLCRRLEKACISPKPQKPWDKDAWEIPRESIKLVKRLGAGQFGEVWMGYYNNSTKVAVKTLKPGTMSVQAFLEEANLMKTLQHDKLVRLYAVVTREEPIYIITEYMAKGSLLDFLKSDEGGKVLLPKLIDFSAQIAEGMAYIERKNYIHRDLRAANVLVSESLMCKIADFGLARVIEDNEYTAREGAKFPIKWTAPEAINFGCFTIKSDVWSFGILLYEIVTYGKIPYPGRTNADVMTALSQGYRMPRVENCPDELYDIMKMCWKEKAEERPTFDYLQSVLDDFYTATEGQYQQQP

SMILES | IC50 (Lyn) [µM] | IC50 (Fyn) [µM] | IC50 (PDGFRB) [µM] | IC50 (Kdr) [µM] | IC50 (AKT) [µM] | IC50 (Hck-1) [µM] | IC50 (EGFR) [µM] | IC50 (ErbB4) [µM] | IC50 (Tek) [µM] | IC50 (Lck) [µM] | IC50 (Flt-1) [µM] | IC50 (FGFR1) [µM] | IC50 (Itk; Table 3) [µM] | IC50 (c-Met) [µM] | IC50 (Zap-70; Table 3) [µM] | IC50 (Src) [µM] | IC50 (ErbB2) [µM] | IC50 (Itk) [µM] | IC50 (Zap-70) [µM] | IC50 (IGFR-1) [µM]
COc1cc(Nc2ncnc(-n3c(N)nc4ccccc43)n2)cc(OC)c1OCCN1CCOCC1 [Compound 445] | 0.812 to 4.87 | 0.812 to 4.87 | < 0.812 | < 0.812 | > 9.14 | > 9.14 | > 9.14 | > 9.14 | 7.11 to 9.14 | < 0.812 | < 0.812 | < 0.812 | 0.812 to 4.87 | 0.812 to 4.87 | > 9.14 | 0.812 to 4.87 | – | – | – | –
COc1cc(Nc2ncnc(-n3c(NC(C)C)nc4ccccc43)n2)cc(OC)c1OC [Compound 403] | < 0.919 | 0.919 to 5.51 | < 0.919 | < 0.919 | > 10.3 | > 10.3 | > 10.3 | > 10.3 | > 10.3 | < 0.919 | 0.919 to 5.51 | < 0.919 | > 10.3 | > 10.3 | > 10.3 | 0.919 to 5.51 | – | – | – | –
C=CCNc1cc(-c2ncnc(Nc3cc(OC)c(OC)c(OC)c3)n2)ccn1 [Compound 412] | < 1.01 | > 11.4 | 6.08 to 8.87 | 1.01 to 6.08 | > 11.4 | > 11.4 | > 11.4 | > 11.4 | > 11.4 | < 1.01 | > 11.4 | > 11.4 | > 11.4 | > 11.4 | > 11.4 | > 11.4 | – | – | – | –
COc1cc(Nc2ncnc(N3CCCc4cc(C)ccc43)n2)cc(OC)c1OC [Compound 498] | < 0.982 | – | – | – | > 11 | > 11 | < 0.982 | 0.982 to 5.89 | 8.59 to 11 | – | – | – | – | – | – | < 0.982 | 0.982 to 5.89 | > 11 | > 11 | > 11
COc1ccc(Nc2nc3ccccc3n2-c2ncnc(Nc3cc(OC)c(OC)c(OC)c3)n2)cc1OC [Compound 400] | > 8.5 | > 8.5 | > 8.5 | < 0.755 | > 8.5 | > 8.5 | > 8.5 | > 8.5 | > 8.5 | > 8.5 | 0.755 to 4.53 | > 8.5 | > 8.5 | > 8.5 | > 8.5 | > 8.5 | – | – | – | –
NCc1ccc(Nc2ncnc(Nc3cc(-c4ccco4)n[nH]3)n2)cc1 [Compound 437] | 1.15 to 6.89 | 1.15 to 6.89 | < 1.15 | < 1.15 | > 12.9 | 10 to 12.9 | 1.15 to 6.89 | 1.15 to 6.89 | 6.89 to 10 | 1.15 to 6.89 | 1.15 to 6.89 | < 1.15 | 1.15 to 6.89 | 1.15 to 6.89 | > 12.9 | 1.15 to 6.89 | – | – | – | –
OCc1ccc(Nc2ncnc(Nc3cc(-c4ccco4)n[nH]3)n2)cc1 [Compound 430] | 1.14 to 6.87 | 1.14 to 6.87 | 1.14 to 6.87 | < 1.14 | 1.14 to 6.87 | > 12.9 | 1.14 to 6.87 | 1.14 to 6.87 | 1.14 to 6.87 | 1.14 to 6.87 | 1.14 to 6.87 | < 1.14 | 1.14 to 6.87 | 1.14 to 6.87 | > 12.9 | 1.14 to 6.87 | – | – | – | –

Source: US7074789B2, “Kinase inhibitors” (Amgen Inc., priority 1999, dated 2006)
